Measured values published in US5137907A, “1-(3-(4-(3,5-difluorophenoxy) phenoxy) propyl) - pyrazole, and its production and use” (Sumitomo Chemical Company, Limited, priority 1988, dated 1992).
Read-outs that look alike come from different tables or passages of the source.

Key:
[1] = test system: common mosquito (Culex pipiens pallens); assay: Inhibition of emergence of last instar larvae of common mosquito (Test Example 1); assay type: in vivo
Procedure: An emulsifiable concentrate prepared according to Formulation Example 1 was diluted with water to make a designed concentration. The dilution (0.7 ml) was added to 100 ml of distilled water. Last instar larvae of common mosquito (Culex pipiens pallens) were released therein and reared for 7 days until their emergence, and the concentration for 50% inhibition (IC50) was examined.

[2] = test system: housefly (Musca domestica); assay: Inhibition test on housefly larvae reared in artificial culture until pupation, pupae examined (Test Example 2); assay type: in vivo
Procedure: Powdered animal feed (2 g) was thoroughly mixed with bran (14 g). An emulsifiable concentrate prepared according to Formulation Example 1 was diluted with water to a designed concentration, and the dilution was added to the above mixture. The resultant mixture was stirred well to make an artificial culture. Thirty larvae of housefly (Musca domestica) were reared therein until their pupation. The obtained pupae were placed into a plastic cup, and the concentration for 50% inhibition was examined in the same manner as in Test Example 1.

[3] = last instar larvae, 0.7 ml dilution of emulsifiable concentrate added to 100 ml distilled water, reared for 7 days until emergence
[4] = thirty larvae reared in artificial culture (powdered animal feed 2 g, bran 14 g, diluted emulsifiable concentrate) until pupation, pupae placed into plastic cup

SMILES | concentration for 50% inhibition (IC50) [1, 3] [ppm] | concentration for 50% inhibition (IC50) [2, 4] [ppm] | further results
c1ccc(Oc2ccc(OCCn3cccn3)cc2)cc1 [(D)] | 0.00023 |  | 
Clc1cc(Cl)cc(Oc2ccc(OCCCn3cccn3)cc2)c1 [(G)] |  | 1.8 | 
COC(C)(C)CCCC(C)CC=CC(C)=CC(=O)OC(C)C (centres unmarked) [(A), methoprene] |  |  | concentration for 50% inhibition (IC50) ([1]; 168 h): 0.00018 ppm; concentration for 50% inhibition (IC50) [2]: 2.3 ppm
Cn1nccc1COc1ccc(Oc2ccccc2)cc1 [(C)] |  | > 3 | 
Fc1cc(F)cc(Oc2ccc(OCCCn3cccn3)cc2)c1 [Pyrazole compound (I), 1-{3-[4-(3,5-difluorophenoxy)phenoxy]propyl}pyrazole] | 0.000009 | 0.14 | 
Clc1cccc(Oc2ccc(OCCn3cccn3)cc2)c1 [(E)] |  | 1.0 | 
c1ccc(Oc2ccc(OCCCc3ccccn3)cc2)cc1 [(B)] | 0.00013 | > 3 | 
c1ccc(Oc2ccc(OCCCn3cccn3)cc2)cc1 [(F)] | 0.0007 |  | 
